“Also recorded” adds a separate entry of the source. Like-named read-outs stand apart in the source and are kept apart here.
Columns and labels:
rhGCPII = rhGCPII (Homo sapiens, UniProt Q04609); assay: GCPII inhibition, radioenzymatic assay with 3H-NAAG; format: biochemical; conditions: for IC50: rhGCPII, 3H-NAAG, pH 8.0, read-out: IC50, inhibition potency against GCPII
Protocol: Inhibition constants of prodrugs were determined using the radioenzymatic assay with 3HNAAG (radiolabeled at the terminal glutamate) as has been previously described (Novakova, et al., J. Med. Chem, 2016). Briefly, rhGCPII (30 ng/mL) was preincubated in the presence of inhibitors at varying concentrations, in 20 mM Tris, 150 mM NaCl, pH 8.0, for 15 min at 37° C. in the total volume of 80 μL. The reaction was initiated by the addition of 40 μL of the mixture of 0.31 μM NAAG (Sigma) and 15 nM 3H-NAAG (50 Ci/mmol in Tris buffer, PerkinElmer) to the total reaction volume of 120 μL. Following 20 min incubation, the reaction was terminated by addition of 120 μL of potassium phosphate (200 Mm), EDTA (50 Mm) and β-mercaptoethanol (2Mm), pH 7.4. The released glutamate was separated by ion-exchange chromatography and quantified by liquid scintillation counting. GraphPad Prism software (GraphPad Software, San Diego, CA, USA), was used for data fitting and IC50 values were calculated from the inhibition curves where applicable.

[1] = In vitro plasma metabolite identification studies; format: in vitro ADME; conditions: 10 μM, 37° C., 60 min incubation
Protocol: Plasma stability studies were conducted in mouse plasma as previously described. (Majer, et al., 2016) Compound 1 and prodrugs (12, 23 and 30) (10 μM) were spiked in plasma and incubated in an orbital shaker at 37° C. At zero and 60 min post incubation, 100 μL aliquots of the mixture in triplicate were removed and the reaction quenched by addition of two times the volume of ice cold acetonitrile spiked with the internal standard (losartan 5 μM). The samples were vortexed for 30 s and centrifuged at 12000 g for 10 min. Supernatant (50 μL) was diluted with 50 μL water and transferred to a 250 μL polypropylene vial sealed with a Teflon cap. Prodrug disappearance and metabolite identification were analyzed over time using an Agilent 1260 HPLC coupled to a ESITOF Agilent 6530 with Agilent Jet Stream Technology (Agilent Technologies, Santa Clara, CA). Samples were separated on a Waters 1.7 μm, C18, 100×2.1 column at a flow rate 0.3 mL/min. […] The mass spectrometry instrument was operated in a negative or positive (for JV-2946) ion mode with a voltage of +3.00 kV applied to the capillary. The temperature, the flow rate of the nitrogen drying gas, the pressure of the nitrogen nebulizing gas, the temperature, and the flow rate of the sheath gas were set at 325° C., 10 L/min, 40 psi, 390° C., and 11/min, respectively.

[2] = system: rat chronic constriction injury (CCI) model of neuropathic pain; conditions: cited from earlier work
[3] = cited from earlier work; for oral bioavailability: background statement
[4] = Subcutaneous plasma and sciatic nerve pharmacokinetic studies in mice; format: in vivo; conditions: 10 mg/kg equivalent s.q., 10-120 min post dose
Protocol: Bioanalysis of parent and intact prodrug in plasma and tissues: Prior to extraction, frozen samples were thawed on ice. For plasma, 50 μL of the sample was transferred into siliconized microcentrifuge tubes. For sciatic nerves, the samples were weighed in a 1.7 mL tubes and homogenized in 5× the volume of methanol. The calibration curves were prepared using naïve plasma and sciatic nerves in a concentration range of 50-10000 pmol/g or pmol/mL. Sample preparation involved a single liquid extraction by addition of 300 μL of methanol with internal standard (losartan 200 nM in methanol), followed by vortexing for 30 s and then centrifugation at 10,000×g for 10 min. Supernatant (about 250 μL) was transferred and evaporated to dryness at 40° C. under a gentle stream of nitrogen. The residue was reconstituted with 50 μL of 30% acetonitrile and analysed by LC/MS/MS.
Chromatographic analysis was performed using an Accela™ ultra high-performance system consisting of an analytical pump, and an autosampler coupled with TSQ Vantage mass spectrometer (Thermo Fisher Scientific Inc., Waltham, MA). […] The mobile phase used was composed of 0.1% formic acid in acetonitrile and 0.1% formic acid in H2O with gradient elution, starting with 10% (organic) linearly increasing to 99% up to 2.5 min, maintaining at 99% (2.5-3.5 min) and reequlibrating to 10% by 4.5 min. The total run time for each analyte was 4.5 min. The mass transitions (M−H)− used for Compound 50 were 280.077>175.168, 203.156; and for losartan were 420.895>127.040, 179.108.

[5] = In vitro metabolic stability in human plasma; format: in vitro ADME; conditions: 37° C.
Protocol: (§1) For metabolic stability, plasma (mouse, and human) and liver microsomes (mouse and human) were used. For stability, prodrugs (10 μM) were spiked in each matrix and incubated in an orbital shaker at 37° C. At predetermined times (0, 30 and 60 min), 100 μL aliquots of the mixture in triplicate were removed and the reaction quenched by addition of three times the volume of ice cold acetonitrile spiked with the internal standard (losartan 5 μM). The samples were vortexed for 30 s and centrifuged 12000 g for 10 min. 50 μL supernatant diluted with 50 μL water was transferred to a 250 μL polypropylene vial sealed with a Teflon cap. Prodrug disappearance was monitored over time using a liquid chromatography and tandem mass spectrometry (LC/MS/MS) method as described below.
(§2) For LC/MS/MS, prodrugs were separated with Thermo Scientific Accela UPLC system coupled to Accela open autosampler on an Agilent C18 (100×2.1 mm id) UPLC column. The autosampler was temperature controlled and operating at 10° C. […] The column effluent was monitored using TSQ Vantage triple-quadrupole mass spectrometric detector, equipped with an electrospray probe set in the positive ionization mode. […]
(§3) For quantification of compound remaining, disappearance of prodrugs was measured from ratio of peak areas of analyte to IS. Percentage remaining was calculated in the following manner: […]

[6] = In vitro metabolic stability in mouse plasma; format: in vitro ADME; conditions: 37° C.
Protocol: as §1, §2, §3

[7] = system: rat chronic constriction injury (CCI) model of neuropathic pain; assay: Chronic constrictive injury (CCI) model of neuropathic pain, thermal hyperalgesia; format: in vivo
Source text: All experimental protocols were approved by the Institutional Animal Care and Use Committee at Johns Hopkins University (Baltimore, MD) and adhered to all of the applicable institutional and governmental guidelines for the humane treatment of laboratory animals. Male Sprague-Dawley rats (200-250 g; n=10-15 per group) were subjected to peripheral neuropathy injury by constriction of the sciatic nerve performed according to methods described previously. (Novakova, et al., 2016; Bennett, et al., 1988; Attal, et al., 1990) In brief, the common sciatic nerve was exposed and 4 ligatures (4.0 chromic gut) tied loosely around it with 1 mm spacing. Wound clips were used to close wounds and animals were returned to home cages for recovery. Hyperalgesia testing was initiated 10 days post-surgery. Pain sensitivity was assessed by determining withdrawal latencies in response to a constant thermal stimulus directed to the plantar surface of the hind paw using a Basile Plantar apparatus (Ugo Basile, Vaarese, Italy) according to the method described by Hargreaves et al. (Hargreaves, et al., 1988) Apparatus was calibrated so that normal rats respond to the stimulus within 15 sec of application. Withdrawal latency (i.e., the time taken for the rat to withdraw its paw from the heat source) was measured to the nearest 0.1 sec. The “difference in score” was calculated by subtracting the average latency of the paw on the non-ligated versus ligated side. Each animal was tested during two experimental sessions per week, with three days allowed to elapse between test sessions. Test agents, prodrug 12 (3 mg/kg equivalent of 1), or gabapentin (50 mg/kg and 100 mg/kg po) as a positive control were dosed daily throughout the study via oral gavage and one hour before testing on experimental days. Statistical analysis with students t-test was used to determine differences between control and treatment group.

[8] = Stability testing under GCPII enzyme assay conditions; format: physicochemical; conditions: 30 m in aqueous buffer; pH 8.0
Protocol: Compound 1 and its six prodrugs 7, 12, 17, 23, 25, and 30 were tested for their inhibition potency against GCPII. […] Considering structural data on the compound 1/GCPII complex reported previously (Novakova, et al., J. Med. Chem, 2016) the lack of inhibitory potency of the prodrugs is likely due to the inability of the modified hydroxamate function to chelate active-site zinc ions.

Chain of rhGCPII (Q04609 whole entry): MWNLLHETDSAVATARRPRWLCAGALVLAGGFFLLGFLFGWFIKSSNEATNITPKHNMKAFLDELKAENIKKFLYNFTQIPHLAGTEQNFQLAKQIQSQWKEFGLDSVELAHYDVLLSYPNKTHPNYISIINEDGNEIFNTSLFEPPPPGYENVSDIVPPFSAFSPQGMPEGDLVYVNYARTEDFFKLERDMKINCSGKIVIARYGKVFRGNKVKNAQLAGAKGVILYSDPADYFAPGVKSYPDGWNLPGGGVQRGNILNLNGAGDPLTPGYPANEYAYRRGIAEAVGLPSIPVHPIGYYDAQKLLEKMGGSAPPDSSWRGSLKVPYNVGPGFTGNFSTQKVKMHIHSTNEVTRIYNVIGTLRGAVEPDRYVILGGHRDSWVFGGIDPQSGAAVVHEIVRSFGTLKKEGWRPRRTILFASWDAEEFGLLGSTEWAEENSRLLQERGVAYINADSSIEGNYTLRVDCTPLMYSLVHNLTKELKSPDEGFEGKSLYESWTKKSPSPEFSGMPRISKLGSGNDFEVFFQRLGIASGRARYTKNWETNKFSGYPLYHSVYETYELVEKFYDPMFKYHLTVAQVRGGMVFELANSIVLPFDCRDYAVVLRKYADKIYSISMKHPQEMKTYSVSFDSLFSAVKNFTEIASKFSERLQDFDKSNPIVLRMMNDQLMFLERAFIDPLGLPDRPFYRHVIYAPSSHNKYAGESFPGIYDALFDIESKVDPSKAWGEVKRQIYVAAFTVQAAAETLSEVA

SMILES: O=C(CCC(Cc1ccc(C(=O)O)cc1)C(=O)O)NO (stereo not drawn) [Compound 1, 4-Carboxy-α-[3-(hydroxyamino)-3-oxopropyl]-benzenepropanoic acid]
- IC50 (rhGCPII): 44 nM
- stability / prodrug disappearance in mouse plasma [1]: completely stable
- analgesic effects in the CCI model ([2]; 10 mg/kg/day oral dosing, previously shown): analgesic effects
- first day with significantly reduced thermal hyperalgesia ([2]; oral 10 mg/kg/day (Novakova, et al., 2016)): 8 days
- distribution to sciatic nerves ([3]; Novakova, et al., 2016): good distribution to sciatic nerves
- oral bioavailability [3]: poor oral bioavailability

SMILES: O=C(O)CCC(CP(=O)(O)O)C(=O)O (stereo not drawn) [Compound 2-PMPA, 2-phosphonomethyl pentanedioic acid]
- oral bioavailability [3]: negligible oral availability

SMILES: CC(=O)Oc1ccc(CONC(=O)CCC(Cc2ccc(C(=O)O)cc2)C(=O)O)cc1 (stereo not drawn) [Compound 12, 4-(5-(((4-Acetoxybenzyl)oxy)amino)-2-carboxy-5-oxopentyl)benzoic acid]
- plasma (systemic) levels of active compound 50 after subcutaneous dosing [4]: high systemic levels
- sciatic nerve exposure of active compound 50 after subcutaneous dosing [4]: excellent nerve exposure
- metabolic stability in human plasma [5]: rapidly metabolized
- metabolic stability in mouse plasma [6]: rapidly metabolized
- stability / prodrug disappearance in mouse plasma [1]: lost the peak corresponding to 12
- response latency to thermal stimulus, sham-operated side ([7]; oral 4.6 mg/kg/day (equivalent of 3 mg/kg/day of 1)): no significant effect on absolute latency; also recorded: did not affect the response latency
- antinociceptive effect on thermal hyperalgesia, ligated side ([7]; oral daily, 3 mg/kg dose equivalent of 1 (50), 4.6 mg/kg/day for 12): analgesic efficacy comparable to dose of 10 mg/kg of 1; also recorded: significantly reduced thermal hyperalgesia; also recorded: analgesic efficacy superior to that of oral daily doses of 10 mg/kg of 1; also recorded: efficacious; also recorded: significantly attenuated CCI-induced hyperalgesic state
- first day with significantly reduced thermal hyperalgesia ([7]; oral, 3 mg/kg/day equivalent of 1): 4 days

SMILES: Cc1oc(=O)oc1CONC(=O)CCC(Cc1ccc(C(=O)O)cc1)C(=O)O (stereo not drawn) [Compound 17, 4-(2-Carboxy-5-(((5-methyl-2-oxo-1,3-dioxol-4-yl)methoxy)amino)-5-oxopentyl)benzoic acid]
- fold less potent versus 1 in inhibiting GCPII activity (rhGCPII; compared to compound 1): 12 fold
- IC50 (rhGCPII): 540 nM
- stability under GCPII enzyme assay conditions [8]: partial hydrolysis to 1

SMILES: CCOC(=O)c1ccc(CC(CCC(=O)NOCc2ccc(OC(C)=O)cc2)C(=O)O)cc1 (stereo not drawn) [Compound 23, 5-(((4-Acetoxybenzyl)oxy)amino)-2-(4-(ethoxycarbonyl)benzyl)-5-oxopentanoic acid]
- stability / prodrug disappearance in mouse plasma [1]: complete loss of 23

SMILES: CC(=O)Oc1ccc(CONC(=O)CCC(Cc2ccc(C(=O)OCOC(=O)OC(C)C)cc2)C(=O)O)cc1 (stereo not drawn) [Compound 30, 5-(((4-Acetoxybenzyl)oxy)amino)-2-(4-((((isopropoxycarbonyl)oxy)methoxy)carbonyl)benzyl)-5-oxopentanoic acid]
- plasma (systemic) levels of active compound 50 after subcutaneous dosing [4]: high systemic levels
- sciatic nerve exposure of active compound 50 after subcutaneous dosing [4]: excellent nerve exposure
- stability / prodrug disappearance in mouse plasma [1]: completely hydrolyzed

SMILES: NCC1(CC(=O)O)CCCCC1 [gabapentin, reference compound]
- antinociceptive effect on thermal hyperalgesia, ligated side ([7]; oral 50 mg/kg/day): did not significantly attenuate the hyperalgesic state
- antinociceptive effect on thermal hyperalgesia, ligated side ([7]; oral 100 mg/kg/day, 100 mg/kg/day): significantly reversed allodynia; also recorded: significantly attenuated CCI-induced hyperalgesic state

— US11866394B2, “Prodrugs of hydroxamate-based GCPII inhibitors” (The Johns Hopkins University, priority 2016, dated 2024)
